From publication PMC11601558, “SLC6A19 inhibition facilitates urinary neutral amino acid excretion and lowers plasma phenylalanine” (JCI Insight, 2024)
Where “and” joins values, the source holds several entries; their conditions need not be identical. Identical values can stand only once. Like-named read-outs stand apart in the source and are kept apart here.

Columns and labels:
Pah^enu2 mice = assay: Plasma Phe in Pah^enu2 mice on defined amino acid diets (0.75%, 0.45%, 0.225% Phe); type: in vivo, mouse; set-up: plasma Phe: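 plasma Phe concentration in µM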; conditions: for mean plasma Phe lower than vehicle / plasma Phe, mean ± SD: 200 mg/kg, 3 hours after dose; for plasma Phe: Fig 3e, Pah^enu2 mice on defined diet, individual animals
Method: To modulate baseline plasma Phe levels, 8–13-week-old male Pah^enu2 mice were maintained on isocaloric amino acid–defined diets with either 7.5 g/kg (0.75%, Teklad T.2018.15), 4.5 g/kg (0.45%, Teklad custom formulation), or 2.25 g/kg (0.225%, Teklad custom formulation) L-Phe for 2 weeks before a single dose administration of 200 mg/kg JN-170 or vehicle. Animals had unrestricted access to food and water throughout the study. Serial plasma samples were taken predose as well as 1, 3, 8, 24 and 48 hours after the dose. For all studies, mice were dosed at 7:00 a.m. ± 30 minutes to synchronize with circadian rhythm.
Plasma sample analyses were carried out by liquid chromatography tandem mass spectrometry (LC-MS/MS). Plasma samples were mixed 1:1 with carbamazepine or ^13C6-Phe as internal standards for JN-170 and Phe, respectively. Plasma proteins were precipitated by adding 4 volumes of acetonitrile (ACN) and 0.1% formic acid (FA) followed by centrifugation for 5 minutes at 2,100g. Supernatants were diluted 1:1 in ACN and 0.1% FA. For JN-170, a Waters HSS T3 reversed phase column was used for separation using a binary gradient of 0.1% FA in water (mobile phase A) to 0.1% in ACN (mobile phase B). At a flow rate of 0.8 mL/min, the mobile phase gradient increased from an initial 25% phase B to 95% phase B over 30 seconds. After, 1.5 minutes, the gradient was returned to 25% mobile phase B. For detection of Phe, an Acquity UPLC ethylene bridged hybrid (BEH) amide column was used, with a binary gradient of 10 mM ammonium acetate in 95:5:1 H2O:ACN:FA (mobile phase A) to 10 mM ammonium acetate in 95:5:1 ACN:H2O:FA (mobile phase B). At a flow rate of 0.5 mL/min, the mobile phase gradient changed from an initial 100% phase B to 50% phase B over 2.1 minutes. It was returned to 100% phase B after 4 minutes. Analytes were detected using a Sciex API-5500 in multiple reaction monitoring mode using an electrospray ionization source in the positive ion mode with the following ion transitions: m/z 435.2/84.1 (JN-170), 237.1/194.1 (carbamazepine), 166.1/120.1 (Phe), 172.2/126.2 for (^13C6-Phe). Analyte concentrations were calculated with a 1/×^2 linear regression over a concentration range of 1 or 2 to 5,000 ng/mL for JN-170 and 0.05–100 ng/mL for Phe.

[1] = JNT-517 plasma pharmacokinetics in healthy volunteers; type: in vivo, human; conditions: for half-life / Tmax: human, plasma, oral; for half-life: read-out: Mean T1/2 (converted); for Tmax: min, read-out: Median Tmax
Method: The plasma pharmacokinetic profile of JNT-517 was measured using a qualified high-performance LC-MS assay. Blood samples for PK analysis were taken before dosing, and 0.5, 1, 1.5, 2, 2.5, 3, 4, 6, 8, 10, 12, 24, 36, […], and 72 hours after dosing in the SAD study. For the MAD study, blood samples for PK analysis were taken before dosing, and 0.5, 1, 1.5, 2, 2.5, 3, 4, 6, 8, 10, 12, and 24 hours after dosing in the case of once-daily dosing or 0.5, 1, 1.5, 2, 2.5, 3, 4, 6, 8.5, 9 9.5, 10, 10.5, 11, 12, 14, 16, and 24 hours after dosing in the case of twice daily dosing. In addition, predose samples were collected throughout days 3–13. The resulting concentration-time data was evaluated using standard noncompartmental analysis methods, and PK parameters were calculated (Cmax, Tmax, T1/2, AUC0-inf, CL/F, Vd/F).
IC50 values for transport inhibition in cells overexpressing SLC6A19 and TMEM27 were calculated using a 4-parameter logistic regression in Collaborative Drug Discovery (CDD). Reported IC50 values are geometric means of 4–6 independent experiments. For postmortem intestinal transport assays, single outliers of quadruplicate replicates were excluded from the calculation if a signal value’s distance to the mean exceeded 35% of the signal average. The IC50 values of individual experiments were calculated with a 3- or 4-parameter logistic regression using GraphPad Prism 9. The reported IC50 value represents the geometric mean of n = 5 experiments from 3 individual donors. Statistical comparison of urinary Phe excretion in Pah^enu2 mice treated with vehicle or JN-170 was conducted using 1-way analysis of variance (ANOVA) with Tukey’s post hoc comparison. Statistical analysis of baseline-adjusted plasma Phe in mice treated with vehicle or JN-170 was determined by 2-way ANOVA with Dunnett’s post hoc comparison. All statistical analyses were performed using GraphPad Prism 9. For clinical studies, group sizes were not determined based on statistical power calculations. Statistical significance of pharmacodynamic results was not assessed. Values are reported as mean (urinary Phe excretion, T1/2, Cl/F), geometric mean (Cmax/D, AUC0-inf/D), or median (Tmax).

N#Cc1ccc(-c2noc([C@]3(C(F)(F)F)CCN(C(=O)NCCC4(N)CC4)C3)n2)cc1 [JN-170]
mean plasma Phe lower than vehicle (Pah^enu2 mice; 0.225% Phe diet): 47% | plasma Phe, mean ± SD (Pah^enu2 mice; 0.225% Phe diet): 309 ± 108 µM | mean plasma Phe lower than vehicle (Pah^enu2 mice; 0.45% Phe diet): 61% | plasma Phe, mean ± SD (Pah^enu2 mice; 0.45% Phe diet): 416 ± 117 µM | mean plasma Phe lower than vehicle (Pah^enu2 mice; 0.75% Phe diet): 59% | plasma Phe, mean ± SD (Pah^enu2 mice; 0.75% Phe diet): 621 ± 141 µM | plasma Phe (Pah^enu2 mice; time 0 h): 2027 and 2042 and 2474 and 2301 and 2768 and 2728 and 2723 and 1767 and 1191 and 962 and 924 and 848 and 1013 and 971 and 1061 and 1569 and 1364 and 1314 | plasma Phe (Pah^enu2 mice; time 1 h): 884 and 990 and 803 and 886 and 865 and 914 and 675 and 1252 and 589 and 1292 and 1010 and 927 and 813 and 907 and 727 and 787 and 898 and 1296 and 942 and 978 | plasma Phe (Pah^enu2 mice; time 3 h): 973 and 455 and 892 and 697 and 736 and 559 and 671 and 509 and 763 and 495 and 635 and 669 and 535 and 654 and 529 and 586 and 485 and 516 and 441 and 769 and 511 and 574 | plasma Phe (Pah^enu2 mice; time 8 h): 938 and 505 and 720 and 502 and 600 and 578 and 665 and 577 and 945 and 657 and 745 and 672 and 637 and 621 and 611 and 518 and 376 and 392 and 476 (2×) and 629 | plasma Phe (Pah^enu2 mice; time 24 h): 1767 and 1553 and 1370 and 1402 and 1592 and 597 and 1045 and 1827 and 1448 and 1043 and 988 and 1535 and 1388 and 1336 and 1203 and 1339 and 1578 and 871 and 1063

NC(=O)N1CCC[C@@H](N(C(=O)NCc2ccc(OC(F)(F)F)cc2F)C2CC2)C1 [JNT-517]
plasma exposure exceeding the in vitro IC75 ([1]; MAD 150 mg QD): approximately 24 hours | accumulation between days 1 and 14 ([1]; MAD cohorts, dose levels tested): no accumulation was observed | Geomean Cmax/D ([1]; SAD 10 mg, %CV 23.6): 45.9 ng/mL/mg | Geomean AUC0-inf/D ([1]; SAD 10 mg, %CV 66.0): 340 ng·h/mL/mg | Mean Cl/F ([1]; SAD 10 mg, SD 1.75): 3.36 L/h | Geomean Cmax/D ([1]; SAD 25 mg, %CV 25.5): 48.5 ng/mL/mg | Geomean AUC0-inf/D ([1]; SAD 25 mg, %CV 59.0): 402 ng·h/mL/mg | Mean Cl/F ([1]; SAD 25 mg, SD 1.27): 2.78 L/h | Geomean Cmax/D ([1]; SAD 50 mg, %CV 14.8): 44.6 ng/mL/mg | Geomean AUC0-inf/D ([1]; SAD 50 mg, %CV 34.5): 348 ng·h/mL/mg | Mean Cl/F ([1]; SAD 50 mg, SD 0.873): 3.00 L/h | Geomean Cmax/D ([1]; SAD 100 mg, %CV 13.0): 35.0 ng/mL/mg | Geomean AUC0-inf/D ([1]; SAD 100 mg, %CV 42.4): 239 ng·h/mL/mg | Mean Cl/F ([1]; SAD 100 mg, SD 2.11): 4.52 L/h | Geomean Cmax/D ([1]; SAD 170 mg, %CV 24.9): 32.9 ng/mL/mg | Geomean AUC0-inf/D ([1]; SAD 170 mg, %CV 33.6): 269 ng·h/mL/mg | Mean Cl/F ([1]; SAD 170 mg, SD 1.15): 3.87 L/h | half-life ([1]; SAD 10 mg, %CV 50.2): 6.37 h | Tmax ([1]; SAD 10 mg, max 0.5, 1.07): 0.75 h | half-life ([1]; SAD 25 mg, %CV 50.7): 7.78 h | Tmax ([1]; SAD 25 mg, max 0.5, 2.0): 1 h | half-life ([1]; SAD 50 mg, %CV 35.4): 6.17 h | Tmax ([1]; SAD 50 mg, max 0.5, 2.0): 0.75 h | half-life ([1]; SAD 100 mg, %CV 31.9): 5.89 h | Tmax ([1]; SAD 100 mg, max 0.5, 1.5): 1 h | half-life ([1]; SAD 170 mg, %CV 24.7): 6.04 h | Tmax ([1]; SAD 170 mg, max 0.5, 2.0): 0.75 h | exposure above the in vitro IC75 ([1]; single 50 mg dose): > 12 h | target coverage exceeding the IC75 ([1]; single 170 mg dose): approximately 24 hours
